Test [1] addresses T1, Acetylcholinesterase (Homo sapiens, UniProt P22303).
Description: (§1) Inhibition of human AChE by Ellmans test
Test [2] addresses T1, Acetylcholinesterase. The source holds these as a separate data set.
Description: as §1
The next test concerns Caenorhabditis elegans. In words: Inhibition of ACh release in Caenorhabditis elegans N2 N2. Format: functional, organism-based.

These results are taken from ChEMBL document CHEMBL1240490, “Novel carbamates as orally active acetylcholinesterase inhibitors found to improve scopolamine-induced cognition impairment: pharmacophore-based virtual screening, synthesis, and pharmacology” (J Med Chem, 2010).

The structures appear in SMILES notation. Activity calls are given as the source filed them. The rule behind the calls is not given here.

T1 sequence (P22303 whole entry): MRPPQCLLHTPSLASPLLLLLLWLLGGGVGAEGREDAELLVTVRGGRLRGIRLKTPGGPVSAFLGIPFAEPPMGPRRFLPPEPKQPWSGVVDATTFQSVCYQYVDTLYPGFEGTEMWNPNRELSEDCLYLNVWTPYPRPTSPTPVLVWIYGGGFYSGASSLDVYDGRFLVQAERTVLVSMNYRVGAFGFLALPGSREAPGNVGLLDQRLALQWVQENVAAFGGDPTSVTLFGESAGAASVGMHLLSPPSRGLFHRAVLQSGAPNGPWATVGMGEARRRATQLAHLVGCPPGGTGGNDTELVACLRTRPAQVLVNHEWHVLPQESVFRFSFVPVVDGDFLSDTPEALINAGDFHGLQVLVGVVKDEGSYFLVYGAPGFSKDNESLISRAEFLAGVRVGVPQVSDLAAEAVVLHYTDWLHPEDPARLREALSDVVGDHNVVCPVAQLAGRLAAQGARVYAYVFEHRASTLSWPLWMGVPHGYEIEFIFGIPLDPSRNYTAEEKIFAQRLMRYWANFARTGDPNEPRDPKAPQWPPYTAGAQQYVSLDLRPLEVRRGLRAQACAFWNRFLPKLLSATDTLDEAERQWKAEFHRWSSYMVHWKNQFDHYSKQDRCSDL

On to `C[C@@]12CCN(Cc3ccccc3)[C@@H]1N(Cc1ccccc1)c1ccc(OC(=O)Nc3ccccc3)cc12`, for which the logIC50 on Acetylcholinesterase [1] was determined as 4.61. The molecule also had an IC50 against Acetylcholinesterase [2] of 41100 nM. In turn, `Cc1ccccc1NC(=O)Oc1ccc2c(c1)[C@]1(C)CCN[C@@H]1N2` returned a logIC50 on Acetylcholinesterase [1] of 2.92. The same molecule registered a concentration for half-maximal inhibition (IC50) against Acetylcholinesterase [2] of 830 nM.

On to `C[C@H](c1cccc(OC(=O)N(C)C)c1)N1CCCCC1`, for which, on Acetylcholinesterase [2], the IC50 was 32 nM. At Acetylcholinesterase [1], `CCc1cccc(CC)c1NC(=O)Oc1ccc2c(c1)[C@]1(C)CCN(C)[C@@H]1N2C` had a logIC50 of 2.84. At Acetylcholinesterase [2], this molecule returned an IC50 of 690 nM.

On to `CC(C)c1ccc(NC(=O)Oc2ccc3c(c2)[C@]2(C)CCN(C)C2N3Cc2ccccc2)cc1` (stereo partly drawn), for which the logIC50 at Acetylcholinesterase [1] worked out at 4.11. Consider `Cc1ccc(C)c(NC(=O)Oc2ccc3c(c2)[C@]2(C)CCN(C)[C@@H]2N3C)c1`, for which the logIC50 on Acetylcholinesterase [1] came to 1.42. On the same count and under the same terms, the figure for `Cc1cccc(NC(=O)Oc2ccc3c(c2)[C@]2(C)CCN(C)[C@@H]2N3C)c1C` is 1.36; for `Cc1ccc(NC(=O)Oc2ccc3c(c2)[C@]2(C)CCN(C)[C@@H]2N3C)cc1` it is 2.15; for `CNC(=O)Oc1ccc2c(c1)[C@]1(C)CCN(C)C1N2Cc1ccccc1` (stereo partly drawn) it is 2.21.

`CCNC(=O)Oc1ccc2c(c1)[C@]1(C)CCO[C@@H]1N2C` displayed a logIC50 at Acetylcholinesterase [1] of 1.91. The molecule `Cc1ccccc1NC(=O)Oc1ccc2c(c1)[C@]1(C)CCN(Cc3ccccc3)C1N2Cc1ccccc1` (stereo partly drawn) had a logIC50 on Acetylcholinesterase [1] of 3.25. Turning to `Cc1ccccc1NC(=O)Oc1ccc2c(c1)C1(C)COC(C1)O2` (stereo not drawn), on Acetylcholinesterase [1], the logIC50 was found to be 1.75. The molecule `Cc1cccc(C)c1NC(=O)Oc1ccc2c(c1)[C@]1(C)CCN(C)[C@@H]1N2C` displayed a logIC50 on Acetylcholinesterase [1] of 2.89. Regarding `CNC(=O)Oc1ccc2c(c1)[C@]1(C)CCN(C)[C@@H]1N2`, the logIC50 on Acetylcholinesterase [1] worked out at 1.75. This molecule displayed an IC50 at Acetylcholinesterase [2] of 56.7 nM.

`CC(C)c1ccc(NC(=O)Oc2ccc3c(c2)[C@]2(C)CCN(C)C2N3)cc1` (stereo partly drawn) returned a logIC50 on Acetylcholinesterase [1] of 3.31. Still for that read-out and setting: then `Cc1cc(C)c(NC(=O)Oc2ccc3c(c2)[C@]2(C)CCN(C)[C@@H]2N3C)c(C)c1`, with 3.11; and `Cc1ccccc1NC(=O)Oc1ccc2c(c1)[C@]1(C)CCNC1N2C` (stereo partly drawn), with 1.23; and `CC(C)c1ccccc1NC(=O)Oc1ccc2c(c1)[C@]1(C)CCN(C)[C@@H]1N2C`, with 1.18. `CNC(=O)Oc1ccc2c(c1)c(C)cn2Nc1ccncc1F` displayed an IC50 at Acetylcholinesterase [2] of 100 nM. `Cc1ccc(NC(=O)Oc2ccc3c(c2)[C@]2(C)CCN(C)[C@@H]2N3C)c(C)c1` showed a logIC50 at Acetylcholinesterase [1] of 1.15. As to `CNC(=O)Oc1ccc2c(c1)[C@]1(C)CCN(C)[C@@H]1N2C=O`, at Acetylcholinesterase [1], the logIC50 worked out at 3.4. Besides, the half-maximal inhibitory concentration (IC50) at Acetylcholinesterase [2] was determined as 2500 nM. `CC(C)c1ccc(NC(=O)Oc2ccc3c(c2)[C@]2(C)CCNC2N3C)cc1` (stereo partly drawn) came in with a logIC50 on Acetylcholinesterase [1] of 2.51.

At Acetylcholinesterase [1], `CN(C(=O)Oc1ccc2c(c1)[C@]1(C)CCN(C)[C@@H]1N2C)c1ccccc1` showed a logIC50 of 2.46. At Acetylcholinesterase [2], this molecule registered an IC50 of 285 nM.

Consider `Cc1ccc(NC(=O)Oc2ccc3c(c2)[C@]2(C)CCN(C)[C@@H]2N3C)cc1C`, for which the logIC50 at Acetylcholinesterase [1] turned out to be 1.49. In turn, `C[C@]12CCNC1Nc1ccc(OC(=O)Nc3ccccc3)cc12` (stereo partly drawn) yielded a logIC50 on Acetylcholinesterase [1] of 2.36. Molecule `Cc1ccccc1NC(=O)Oc1ccc2c(c1)[C@]1(C)CCN(C)C1N2Cc1ccccc1` (stereo partly drawn) registered a logIC50 on Acetylcholinesterase [1] of 2. The molecule `CNC(=O)Oc1ccc2c(c1)SC[C@@H]1CCN(C)[C@H]21` came in with an IC50 against Acetylcholinesterase [2] of 8.11 nM. Molecule `CC(C)c1ccc(NC(=O)Oc2ccc3c(c2)[C@]2(C)CCO[C@@H]2N3C)cc1` displayed a logIC50 on Acetylcholinesterase [1] of 3.59. As to `Cc1ccccc1NC(=O)Oc1ccc2c(c1)[C@]1(C)CCO[C@@H]1N2C`, the logIC50 at Acetylcholinesterase [1] was 1.11.

On Acetylcholinesterase [1], `CCNC(=O)Oc1ccc2c(c1)C1(C)COC(C1)O2` (stereo not drawn) came in with a logIC50 of 2.56. In the case of `CNC(=O)Oc1ccc2c(c1)[C@@]1(C)CCN(C)C1N2` (stereo partly drawn), the logIC50 at Acetylcholinesterase [1] came out at 1.75.

For the molecule `CCc1ccccc1NC(=O)Oc1ccc2c(c1)[C@]1(C)CCN(C)[C@@H]1N2C`, on Acetylcholinesterase [1], the logIC50 is 1. In turn, `CN1CC[C@]2(C)c3cc(OC(=O)Nc4ccccc4)ccc3N(C)C12` (stereo partly drawn) returned a logIC50 at Acetylcholinesterase [1] of 3.54. Take `CC(C)c1ccc(NC(=O)Oc2ccc3c(c2)C2(C)COC(O3)O2)cc1` (stereo not drawn): the logIC50 at Acetylcholinesterase [1] worked out at 3.63. Besides, the IC50 against Acetylcholinesterase [2] turned out to be 4300 nM.

The molecule `CN1CC[C@@]2(C)c3cc(OC(=O)N4CCc5ccccc5C4)ccc3N(C)[C@@H]12` [QUILOSTIGMINE] displayed an IC50 against Acetylcholinesterase [2] of 148 nM. On to `CN(C)Cc1cc2c(cc1OC(=O)Nc1ccccc1)[C@]1(C)CCN(C)[C@@H]1N2C`, for which the logIC50 at Acetylcholinesterase [1] came out at 2.89. Also, half-maximal inhibition against Acetylcholinesterase [2] (IC50) required 780 nM. `O=C(Nc1ccccc1Cl)Oc1ccc2c(c1)CCCN2Cc1ccccc1` showed an IC50 against Acetylcholinesterase [2] of 3310 nM. On Acetylcholinesterase [1], `CNC(=O)Oc1ccc2c(c1)[C@]1(C)CCO[C@@H]1N2C` yielded a logIC50 of 1.43. As to `CNC(=O)Oc1ccc2c(c1)[C@]1(C)CCN(Cc3ccccc3)[C@@H]1N2Cc1ccccc1`, at Acetylcholinesterase [1], the logIC50 turned out to be 3.55. For the same molecule, the IC50 on Acetylcholinesterase [2] is 3560 nM. The molecule `CN1CC[C@]2(C)c3cc(OC(=O)Nc4ccccc4)ccc3NC12` (stereo partly drawn) had a logIC50 on Acetylcholinesterase [1] of 3.75. `Cc1ccccc1NC(=O)Oc1ccc2c(c1)[C@]1(C)CCN(C)[C@@H]1N2C` [TOLSERINE]: at Acetylcholinesterase [1], the logIC50 amounted to 1. The 50% inhibitory concentration (IC50) at Acetylcholinesterase [2] is 40 nM. Turning to `CCNC(=O)Oc1ccc2c(c1)[C@]1(C)CCN(C)[C@@H]1N2C`, the logIC50 at Acetylcholinesterase [1] worked out at 1.97. `CNC(=O)Oc1ccc2c(c1)[C@]1(C)CCN(Cc3ccccc3)C1N2Cc1ccccc1` (stereo partly drawn) displayed a logIC50 on Acetylcholinesterase [1] of 3.04. With `CCCCCCNC(=O)Oc1ccc2c(c1)CCCN2Cc1ccccc1`, in the test with Caenorhabditis elegans, the inhibition entry is “Active”. As for `CNC(=O)Oc1ccc2c(c1)[C@]1(C)CCN(C)[C@@H]1N2Cc1ccccc1`, on Acetylcholinesterase [1], the logIC50 was 2.21. In addition, on Acetylcholinesterase [2], 161 nM corresponded to half-maximal inhibition (IC50). Molecule `CNC(=O)Oc1ccc2c(c1)OC[C@@H]1CCN(C)[C@H]21` registered an IC50 against Acetylcholinesterase [2] of 30 nM.

At Acetylcholinesterase [2], `CCOC(=O)C1=CN(C)c2cccc(OC(=O)N(C)C)c2C1` came in with an IC50 of 7 nM. In turn, `CN1CC[C@]2(C)c3cc(OC(=O)Nc4ccccc4)ccc3N(Cc3ccccc3)C12` (stereo partly drawn) yielded a logIC50 at Acetylcholinesterase [1] of 4.05.

In the case of `Cc1cc2c(cc1OC(=O)Nc1ccccc1)[C@]1(C)CCN(C)[C@@H]1N2C`, the logIC50 at Acetylcholinesterase [1] amounted to 2.41. At Acetylcholinesterase [1], `Cc1cc(C)cc(NC(=O)Oc2ccc3c(c2)[C@]2(C)CCN(C)[C@@H]2N3C)c1` had a logIC50 of 1.89.

Consider `CN1CC[C@@]2(C)c3cc(OC(=O)Nc4ccccc4)ccc3N(C=O)[C@@H]12`, for which the logIC50 at Acetylcholinesterase [1] was found to be 2.52. Inhibition against Acetylcholinesterase [2] was half-maximal at 330 nM (IC50).

Molecule `CNC(=O)Oc1ccc2c(c1)[C@@]1(C)CCN(C)C1N2Cc1ccccc1` (stereo partly drawn) came in with a logIC50 on Acetylcholinesterase [1] of 3.45.

On to `CN1CC[C@@]2(C)c3cc(OC(=O)Nc4ccccc4)ccc3N(Cc3ccccc3)[C@@H]12`, for which, at Acetylcholinesterase [1], the logIC50 turned out to be 2.39. Besides, on Acetylcholinesterase [2], the IC50 worked out at 245 nM. Consider `CNC(=O)Oc1ccc2c(c1)CC[C@@H]1CCN(C)[C@H]21`, for which half-maximal inhibition at Acetylcholinesterase [2] (IC50) was put at 17.3 nM. On Acetylcholinesterase [1], `CCNC(=O)Oc1ccc2c(c1)C1(C)COC(O2)O1` (stereo not drawn) displayed a logIC50 of 2.59. This molecule also showed an IC50 on Acetylcholinesterase [2] of 387 nM. `Cc1ccccc1NC(=O)Oc1ccc2c(c1)[C@]1(C)CCN(CCc3ccccc3)C1N2C` (stereo partly drawn) displayed a logIC50 at Acetylcholinesterase [1] of 2.74. Molecule `CNC(=O)Oc1ccc2c(c1)[C@]1(C)CCNC1N2` (stereo partly drawn) registered a logIC50 on Acetylcholinesterase [1] of 3.17. In the case of `Cc1ccccc1NC(=O)Oc1ccc2c(c1)[C@]1(C)CCN(C)[C@@H]1N2`, the logIC50 at Acetylcholinesterase [1] was found to be 1.6. Besides, on Acetylcholinesterase [2], half-maximal inhibition (IC50) required 40 nM.
